The target of one test is GST tagged truncated human mutant G2019S LRRK2 (Homo sapiens (Human), UniProt Q5S007, G2019S). The test can be described thus: LRRK2 Km ATP LanthaScreen Assay. It counts as biochemical. The settings on record: G2019S LRRK2, 134 μM ATP (Km ATP), mean values. In short, it runs like this:
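Enzyme (GST-tagged, truncated) was preincubated with compound for 15 min at RT in 50 mM Tris pH 8.5, 10 mM MgCl2, 0.01% Brij-35, 1 mM EGTA, 2 mM DTT and 0.05 mM orthovanadate. Fluorescein-LRRKtide and 134 μM ATP (Km) were then added for 90 min. EDTA and Tb-anti-pERM antibody stopped the reaction; the TR-FRET 520/495 ratio gave 4-parameter IC50s, reported as mean pIC50.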
(In general: Time-resolved FRET reads energy transfer from a long-lived donor to a nearby acceptor.)
Sequence of GST tagged truncated human mutant G2019S LRRK2 (Q5S007 970-2527 G2019S): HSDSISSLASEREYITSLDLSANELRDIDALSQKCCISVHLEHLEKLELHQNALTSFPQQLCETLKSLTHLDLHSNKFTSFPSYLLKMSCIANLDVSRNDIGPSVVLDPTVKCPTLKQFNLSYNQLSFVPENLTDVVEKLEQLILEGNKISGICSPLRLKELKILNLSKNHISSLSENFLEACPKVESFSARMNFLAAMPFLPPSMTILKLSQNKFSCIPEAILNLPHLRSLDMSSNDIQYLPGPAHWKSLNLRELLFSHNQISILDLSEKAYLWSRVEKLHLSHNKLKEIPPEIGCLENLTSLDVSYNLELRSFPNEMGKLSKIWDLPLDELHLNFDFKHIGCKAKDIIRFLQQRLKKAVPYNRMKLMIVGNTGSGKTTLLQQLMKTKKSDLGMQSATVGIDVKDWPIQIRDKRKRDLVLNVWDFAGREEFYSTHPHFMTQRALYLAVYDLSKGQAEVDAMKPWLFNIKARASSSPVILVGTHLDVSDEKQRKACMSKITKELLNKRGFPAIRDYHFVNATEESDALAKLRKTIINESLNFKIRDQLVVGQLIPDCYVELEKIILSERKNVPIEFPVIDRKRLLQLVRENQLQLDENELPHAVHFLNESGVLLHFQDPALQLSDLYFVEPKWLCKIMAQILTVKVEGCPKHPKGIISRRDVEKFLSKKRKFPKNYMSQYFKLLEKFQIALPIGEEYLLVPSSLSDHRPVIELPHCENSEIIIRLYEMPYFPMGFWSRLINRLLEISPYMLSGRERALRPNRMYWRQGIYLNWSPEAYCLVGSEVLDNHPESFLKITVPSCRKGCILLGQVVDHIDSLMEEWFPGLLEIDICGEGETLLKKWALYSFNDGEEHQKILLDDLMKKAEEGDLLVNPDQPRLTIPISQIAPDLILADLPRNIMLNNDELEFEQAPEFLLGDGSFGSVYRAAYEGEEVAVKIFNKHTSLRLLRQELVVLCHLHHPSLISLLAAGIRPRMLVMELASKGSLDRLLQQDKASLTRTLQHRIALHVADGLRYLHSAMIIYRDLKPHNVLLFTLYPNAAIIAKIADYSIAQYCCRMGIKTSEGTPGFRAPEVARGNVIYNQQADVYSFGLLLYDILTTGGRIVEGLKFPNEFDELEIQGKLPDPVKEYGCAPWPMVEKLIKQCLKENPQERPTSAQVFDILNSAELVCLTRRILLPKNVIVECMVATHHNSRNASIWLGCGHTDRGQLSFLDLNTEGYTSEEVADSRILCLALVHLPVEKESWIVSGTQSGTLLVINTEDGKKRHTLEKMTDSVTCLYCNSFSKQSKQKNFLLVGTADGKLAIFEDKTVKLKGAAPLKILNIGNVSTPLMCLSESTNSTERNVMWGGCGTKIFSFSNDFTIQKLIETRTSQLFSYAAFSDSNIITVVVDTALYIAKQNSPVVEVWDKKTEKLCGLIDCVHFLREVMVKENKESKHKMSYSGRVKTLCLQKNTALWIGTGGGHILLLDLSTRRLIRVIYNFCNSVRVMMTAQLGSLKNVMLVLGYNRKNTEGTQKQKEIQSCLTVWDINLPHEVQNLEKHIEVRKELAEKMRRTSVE
For `Cc1cc2cnc(Nc3cnn(C4CC4(F)F)c3C)nc2cc1[C@@H]1CCN(C2COCC2F)C[C@H]1F` (single isomer, unassigned) [Ex-7.6], the “LRRK2 pIC50” value is more than 9.20.

On to `Cc1cc2cnc(Nc3cnn(C4CC4)c3Cl)nc2cc1[C@@H]1CCN(C2COCC2F)C[C@H]1F` (single isomer, unassigned) [Ex-7.9, (3S,4R)(3S,4S) or (3R,4S)(3S,4S) or (3R,4R)(3S,4S) or (3S,4S)(3S,4S) or (3S,4R)(3R,4R) or (3R,4S)(3R,4R) or (3R,4R)(3R,4R) or (3S,4S)(3R,4R) N-(5-chloro-1-cyclopropyl-1H-pyrazol-4-yl)-7-[3-fluoro-1-(4-fluorooxolan-3-yl)piperidin-4-yl]-6-methylquinazolin-2-amine], for which the “LRRK2 pIC50” value was 9.04.

On to `Cc1nsc(Nc2ncc3cc(Cl)c([C@@H]4CCN(C5CCOC5)C[C@H]4F)cc3n2)c1Cl` (single isomer, unassigned) [Ex-8.20, (3S,4S)(S) or (3S,4S)(R) or (3R,4R)(S) or (3R,4R)(R) 6-chloro-N-(4-chloro-3-methyl-1,2-thiazol-5-yl)-7-[3-fluoro-1-(oxolan-3-yl)piperidin-4-yl]quinazolin-2-amine], for which the “LRRK2 pIC50” value was 8.53.

For the molecule `Cc1nsc(Nc2ncc3cc(Cl)c([C@@H]4CCN(C5CCOC5)C[C@H]4F)cc3n2)c1Cl` (single isomer, unassigned) [Ex-8.21, (3S,4S)(S) or (3S,4S)(R) or (3R,4R)(S) or (3R,4R)(R) 6-chloro-N-(4-chloro-3-methyl-1,2-thiazol-5-yl)-7-[3-fluoro-1-(oxolan-3-yl)piperidin-4-yl]quinazolin-2-amine], the “LRRK2 pIC50” value worked out at 8.44.

Regarding `Cc1nsc(Nc2ncc3cc(Cl)c([C@H]4CCN(C5CCOC5)C[C@@H]4F)cc3n2)c1Cl` (single isomer, unassigned) [Ex-8.22, (3S,4S)(S) or (3S,4S)(R) or (3R,4R)(S) or (3R,4R)(R) 6-chloro-N-(4-chloro-3-methyl-1,2-thiazol-5-yl)-7-[3-fluoro-1-(oxolan-3-yl)piperidin-4-yl]quinazolin-2-amine], the “LRRK2 pIC50” value is reported as 8.68.

Consider `Cc1nsc(Nc2ncc3cc(Cl)c([C@H]4CCN(C5CCOC5)C[C@@H]4F)cc3n2)c1Cl` (single isomer, unassigned) [Ex-8.23, (3S,4S)(S) or (3S,4S)(R) or (3R,4R)(S) or (3R,4R)(R) 6-chloro-N-(4-chloro-3-methyl-1,2-thiazol-5-yl)-7-[3-fluoro-1-(oxolan-3-yl)piperidin-4-yl]quinazolin-2-amine], for which the “LRRK2 pIC50” value amounted to 8.12.

As for `F[C@@H]1CN(C2COC2)CC[C@H]1c1cc2nc(Nc3cnn(C4CC4(F)F)c3Cl)ncc2cc1Cl` (single isomer, unassigned) [Ex-8.28, (R)(3S,4S) or (S)(3S,4S) or (R)(3R,4R) or (S)(3R,4R) 6-chloro-N-[5-chloro-1-(2,2-difluorocyclopropyl)-1H-pyrazol-4-yl]-7-[3-fluoro-1-(oxetan-3-yl)piperidin-4-yl]quinazolin-2-amine], the “LRRK2 pIC50” value is 9.04.

Consider `F[C@@H]1CN(C2COC2)CC[C@H]1c1cc2nc(Nc3cnn(C4CC4(F)F)c3Cl)ncc2cc1Cl` (single isomer, unassigned) [Ex-8.29, (R)(3S,4S) or (S)(3S,4S) or (R)(3R,4R) or (S)(3R,4R) 6-chloro-N-[5-chloro-1-(2,2-difluorocyclopropyl)-1H-pyrazol-4-yl]-7-[3-fluoro-1-(oxetan-3-yl)piperidin-4-yl]quinazolin-2-amine], for which the “LRRK2 pIC50” value turned out to be 8.88.

On to `F[C@H]1CN(C2COC2)CC[C@@H]1c1cc2nc(Nc3cnn(C4CC4(F)F)c3Cl)ncc2cc1Cl` (single isomer, unassigned) [Ex-8.30, (R)(3S,4S) or (S)(3S,4S) or (R)(3R,4R) or (S)(3R,4R) 6-chloro-N-[5-chloro-1-(2,2-difluorocyclopropyl)-1H-pyrazol-4-yl]-7-[3-fluoro-1-(oxetan-3-yl)piperidin-4-yl]quinazolin-2-amine], for which the “LRRK2 pIC50” value worked out at 8.96.

`F[C@H]1CN(C2COC2)CC[C@@H]1c1cc2nc(Nc3cnn(C4CC4(F)F)c3Cl)ncc2cc1Cl` (single isomer, unassigned) [Ex-8.31, (R)(3S,4S) or (S)(3S,4S) or (R)(3R,4R) or (S)(3R,4R) 6-chloro-N-[5-chloro-1-(2,2-difluorocyclopropyl)-1H-pyrazol-4-yl]-7-[3-fluoro-1-(oxetan-3-yl)piperidin-4-yl]quinazolin-2-amine]: the “LRRK2 pIC50” value was more than 9.20.

As to `O[C@@H]1COC[C@@H]1N1CC[C@H](c2cc3nc(Nc4cnn(C56CC(C5)C6)c4Cl)ncc3cc2Cl)[C@@H](F)C1` (single isomer, unassigned) [Ex-8.32, (3S,4S)(3S,4S) or (3S,4S)(3R,4R) or (3R,4R)(3S,4S) or (3R,4R)(3R,4R) 4-[4-(2-{[1-(bicyclo[1.1.1]pentan-1-yl)-5-chloro-1H-pyrazol-4-yl]amino}-6-chloroquinazolin-7-yl)-3-fluoropiperidin-1-yl]oxolan-3-ol], the “LRRK2 pIC50” value is 9.05.

In the case of `Cc1cc2cnc(Nc3cnn(C45CC(C4)C5)c3Cl)nc2cc1[C@@H]1CCN([C@@H]2COC[C@@H]2O)C[C@H]1F` (single isomer, unassigned) [Ex-8.33, (3S,4S)(3S,4S) or (3S,4S)(3R,4R) or (3R,4R)(3S,4S) or (3R,4R)(3R,4R) 4-[4-(2-{[1-(bicyclo[1.1.1]pentan-1-yl)-5-chloro-1H-pyrazol-4-yl]amino}-6-methylquinazolin-7-yl)-3-fluoropiperidin-1-yl]oxolan-3-ol], the “LRRK2 pIC50” value was more than 9.20.

Staying with this test, now noted: G2019S LRRK2, 134 μM ATP (Km ATP), mean values; read-out: LRRK2 pIC50 (converted).
In the case of `CC(n1ncc(Nc2ncc3cc(Cl)c(C4CCN(C5COC5)CC4)cc3n2)c1Cl)C(F)(F)F` (single isomer, unassigned) [Ex-8.3, (S) or (R) 6-chloro-N-[5-chloro-1-(1,1,1-trifluoropropan-2-yl)-1H-pyrazol-4-yl]-7-[1-(oxetan-3-yl)piperidin-4-yl]quinazolin-2-amine], the IC50 is less than 0.631 nM.

In the case of `Cc1nsc(Nc2ncc3cc(Cl)c(C4CCN(C5CCOC5)CC4)cc3n2)c1Cl` (single isomer, unassigned) [Ex-8.18, (S) or (R) 6-chloro-N-(4-chloro-3-methyl-1,2-thiazol-5-yl)-7-[1-(oxolan-3-yl)piperidin-4-yl]quinazolin-2-amine], the IC50 was less than 0.631 nM.

For `Cc1nsc(Nc2ncc3cc(Cl)c(C4CCN(C5CCOC5)CC4)cc3n2)c1Cl` (single isomer, unassigned) [Ex-8.19, (S) or (R) 6-chloro-N-(4-chloro-3-methyl-1,2-thiazol-5-yl)-7-[1-(oxolan-3-yl)piperidin-4-yl]quinazolin-2-amine], the IC50 was 1.15 nM.

As for `CC(O)(Cn1ncc(Nc2ncc3cc(Cl)c(C4CCN(C5COC5)CC4)cc3n2)c1Cl)C(F)(F)F` (single isomer, unassigned) [Ex-8.25, (S) or (R) 3-[5-chloro-4-({6-chloro-7-[1-(oxetan-3-yl)piperidin-4-yl]quinazolin-2-yl}amino)-1H-pyrazol-1-yl]-1,1,1-trifluoro-2-methylpropan-2-ol], the IC50 is less than 0.631 nM.

Turning to `CC(O)(Cn1ncc(Nc2ncc3cc(Cl)c(C4CCN(C5COC5)CC4)cc3n2)c1Cl)C(F)(F)F` (single isomer, unassigned) [Ex-8.27, (S) or (R) 3-[5-chloro-4-({6-chloro-7-[1-(oxetan-3-yl)piperidin-4-yl]quinazolin-2-yl}amino)-1H-pyrazol-1-yl]-1,1,1-trifluoro-2-methylpropan-2-ol], the IC50 was 0.851 nM.
